From patent publication US20080176261A1, “Colorimetric Substrate and Methods for Detecting Poly(ADP-ribose) Polymerase Activity including PARP Enzymes PARP-1, VPARP, and Tankyrase-1” (THE BOARD OF TRUSTEES OF THE UNIVERSITY OF ILLINOIS, priority 2007, published 2008)

Assays:
PARP-1 = PARP-1 (Homo sapiens, UniProt P09874); test: biochemical
Protocol: (§1) For these measurements, concentrations of DPQ ranging from 0.05 nM to 10 μM were added to a 96-well plate containing PARP assay buffer and ADP-ribose-pNP and the absorbance at 405 nm was measured in triplicate.
(§2) Determination of IC50 values for PARP inhibitors. To determine IC50 values of the PARP inhibitors, 22.5 μL of PARP assay buffer containing varying concentrations of DPQ and 20 μg/mL DNase activated DNA (for PARP-1 only) were added into the wells of a 384-well plate. A 22.5 μL volume of PARP at a concentration of 5 μg/mL PARP-1, 40 μg/mL VPARP and 40 μg/mL tankyrase-1 in PARP assay buffer was added. The reaction was initiated by the addition of 5 μL of a 2.5 mM solution of ADP-ribose-pNP in PARP assay buffer, bringing the final concentration to 2.5 μg/mL PARP-1 with 10 μg/mL DNA or 20 μg/mL VPARP or 20 μg/mL tankyrase-1, 250 μM ADP-ribose-pNP with varying concentrations of inhibitors in a total volume of 50 μL. The plate was then read every 2 minutes for 2 hours at 405 nm on a SpectraMax 384 plate reader (Molecular Devices). […]
(§3) Data analysis. Data from the plate reader was imported into Excel where appropriate subtractions were made and the data was plotted. Graphs were analyzed using Table Curve 2D. […]

tankyrase-1 = target: T1, tankyrase-1 (Homo sapiens, UniProt O95271); test: IC50 determination of PARP inhibitor with ADP-ribose-pNP substrate, tankyrase-1; format: biochemical; settings: 250 μM ADP-ribose-pNP
T1 construct: The SAM and PARP domain of tankyrase was subcloned into pGEX-5X-1; made in house; host or cells: E. coli Rosetta
T1 sequence (O95271 1030-1327): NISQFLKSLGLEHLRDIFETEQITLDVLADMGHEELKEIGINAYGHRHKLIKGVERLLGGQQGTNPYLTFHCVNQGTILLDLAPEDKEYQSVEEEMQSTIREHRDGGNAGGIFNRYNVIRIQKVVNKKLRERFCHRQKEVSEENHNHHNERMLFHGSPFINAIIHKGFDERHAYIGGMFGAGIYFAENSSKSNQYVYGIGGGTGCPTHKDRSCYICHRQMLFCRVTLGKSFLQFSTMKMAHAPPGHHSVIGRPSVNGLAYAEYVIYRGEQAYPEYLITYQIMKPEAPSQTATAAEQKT
Protocol: as §1, §2, §3

VPARP = target: T2, VPARP (Homo sapiens, UniProt Q9UKK3); test: IC50 determination of PARP inhibitor with ADP-ribose-pNP substrate, VPARP; format: biochemical; settings: 250 μM ADP-ribose-pNP
T2 construct: The plasmid with the catalytic domain of VPARP, pET28b-p193cat; made in house; host or cells: E. coli Rosetta
T2 sequence (Q9UKK3 369-573 limits assumed): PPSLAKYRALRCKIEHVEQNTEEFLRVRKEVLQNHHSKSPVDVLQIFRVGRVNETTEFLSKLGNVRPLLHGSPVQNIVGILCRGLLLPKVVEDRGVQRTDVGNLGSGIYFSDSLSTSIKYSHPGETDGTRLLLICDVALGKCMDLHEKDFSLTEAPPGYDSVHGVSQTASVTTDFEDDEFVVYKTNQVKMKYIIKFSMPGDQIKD
Protocol: as §1, §2, §3

Sequence of PARP-1 (P09874 whole entry): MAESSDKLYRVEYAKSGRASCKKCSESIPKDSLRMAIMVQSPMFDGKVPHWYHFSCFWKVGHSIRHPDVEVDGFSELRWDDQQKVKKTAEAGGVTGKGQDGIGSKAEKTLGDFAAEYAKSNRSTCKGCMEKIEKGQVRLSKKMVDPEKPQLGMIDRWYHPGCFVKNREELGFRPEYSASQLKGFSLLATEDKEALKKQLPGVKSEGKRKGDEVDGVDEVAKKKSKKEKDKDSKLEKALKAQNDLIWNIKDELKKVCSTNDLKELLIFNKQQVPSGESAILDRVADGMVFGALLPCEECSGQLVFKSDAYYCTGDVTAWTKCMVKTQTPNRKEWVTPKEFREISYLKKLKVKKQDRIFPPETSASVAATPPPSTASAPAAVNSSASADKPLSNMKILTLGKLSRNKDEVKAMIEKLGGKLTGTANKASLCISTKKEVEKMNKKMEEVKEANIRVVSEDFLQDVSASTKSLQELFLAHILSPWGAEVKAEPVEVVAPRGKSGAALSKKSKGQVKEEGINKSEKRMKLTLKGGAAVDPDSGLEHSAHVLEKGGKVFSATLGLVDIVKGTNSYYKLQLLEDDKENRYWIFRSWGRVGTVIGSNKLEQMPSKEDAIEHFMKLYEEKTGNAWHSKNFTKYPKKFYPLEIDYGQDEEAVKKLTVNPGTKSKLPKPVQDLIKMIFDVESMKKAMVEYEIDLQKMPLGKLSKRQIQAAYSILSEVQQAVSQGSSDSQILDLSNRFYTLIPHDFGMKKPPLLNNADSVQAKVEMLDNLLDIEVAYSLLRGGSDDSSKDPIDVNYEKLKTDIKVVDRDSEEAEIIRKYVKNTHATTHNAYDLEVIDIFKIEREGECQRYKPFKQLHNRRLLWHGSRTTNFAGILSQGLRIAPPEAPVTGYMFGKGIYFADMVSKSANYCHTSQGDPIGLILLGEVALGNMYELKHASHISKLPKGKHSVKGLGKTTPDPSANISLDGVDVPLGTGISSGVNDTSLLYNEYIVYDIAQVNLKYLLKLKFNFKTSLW

## O=C1NCCc2c(OCCCCN3CCCCC3)cccc21 [DPQ, 3,4-Dihydro-5-[4-(1-piperidinyl)butoxyl]-1 (2H)-isoquinolinone]
PARP-1
  IC50: 0.023 µM
tankyrase-1
  IC50: 0.033 µM
VPARP
  IC50: 0.281 µM
